From patent US20240190920A1, “BECLIN 1-TARGETED STAPLED PEPTIDE AND PHARMACEUTICAL COMPOSITION” (Shenzhen Research Institute of the Hong Kong Polytechnic …, priority 2021, published 2024) come the findings set out here.

Where two headings read alike, the source gives them in different places. Bridge positions count the residues as written; N and C are the ends. Square brackets hold non-standard residues; d marks the D form. Ends that are not written are not given here. Peptide text beside a SMILES is read from it. R8 = C=CCCCCCC[C@@](C)(N)C(=O)O; S5 = C=CCCC[C@](C)(N)C(=O)O

Assay [1] has as its target T1, Beclin 1 coiled coil domain (Homo sapiens, UniProt Q14457).
T1 construct: the coiled coil domain of human Beclin 1 (residues 176-268); thioredoxin-6xHis fusion tag with HRV 3C protease cleavage site; made in house; host or cells: Escherichia coli BL21(DE3)
As to the kind of experiment: Isothermal titration calorimetry (ITC) binding affinity. The conditions noted are these: 25° C., pH 7.4, Tat-fused peptide. How it is done:
The expression and purification of Beclin 1 coiled coil domain is performed as described previously. Briefly, the coiled coil domain of human Beclin 1 (residues 176-268) is cloned into the modified pET32a vector containing the human rhinovirus (HRV) 3C protease cleavage site and thioredoxin-6×His fusion tag. Recombinant protein for the Beclin1 coiled oil domain is expressed in Escherichia coli BL21(DE3) and purified by Ni^2+-NTA affinity chromatography (His Trap HP, GE Healthcare) first and followed by size-exclusion chromatography (Superdex 75, GE Healthcare).
ITC assays are carried out by MicroCal PEAQ-ITC Automated (Marvern) at 25° C. All designed peptides and purified protein for the Beclin 1 coiled coil domain are dialyzed into the buffer containing 50 mM Tris, 150 mM NaCl at pH 7.4. For each titration assay, the injection syringe is loaded with 40 μl of peptide and the cell is loaded with Beclin 1 coiled coil domain protein. Typically, titrations consist of 19 injections, and each injection is performed at a time interval of 180 seconds to ensure that the titration peak returns to the baseline. The titration data are analyzed using the MicroCal PEAQ-ITC Analysis software and fitted by the one-site binding model.

For a further assay, the system named is EGFR. The assay can be described thus: EGF-induced endolysosomal degradation of EGFR, Western blot. The format is cell-based. The conditions noted are these: SKBR3, 2 μM, 200 ng/ml EGF. How it is done: (§1) FIG. 9 is a schematic diagram of the result showing peptides based on (I7-01s) scaffold are potent inducers of endolysosomal trafficking. (a-c) Western blot to assess the HER2 and EGFR levels in SKBR3 cells. Cells are starved overnight and are treated with 200 ng/ml EGF respectively with vehicle control (a), 2 μM Tat-SP4 (b), 2 μM i7-01s-31 (c). (d & e) Time-dependent plots to quantify HER2 and EGFR degradation profiles after three independent experiments. The levels of HER2 (d) and EGFR (e) are normalized to the β-actin level at different time points and then further normalized to time 0, when the ligand EGF is added. Data are presented as mean±SEM (n=3).
In some embodiments, the Beclin 1-targeting stapled peptide provided by the present disclosure can effectively promote endolysosomal trafficking. As a scaffolding member of the PI3KC3 complex, Beclin 1 is essential for multiple PI3KC3-dependent processes including autophagy, endolysosomal trafficking and phagocytosis. […]
Whole cell lysates are extracted using Laemmli sample buffer (62.5 mM Tris-HCl, pH 6.8, 2% SDS, 25% glycerol, 5% β-mercaptoethanol) supplemented with EDTA-free protease inhibitor cocktail (Roche). Protein concentration is determined using a standard Bradford assay before immunoblotting. […]
For orientation: In western blotting, separated proteins are transferred to a membrane and probed.

In another assay the test system is HER2. The assay can be described thus: EGF-induced endolysosomal degradation of HER2, Western blot. The conditions noted are these: SKBR3, 2 μM, 200 ng/ml EGF. The format is cell-based. How it is done:
as §1
In some embodiments, the Beclin 1-targeting stapled peptide provided by the present disclosure can effectively promote endolysosomal trafficking. As a scaffolding member of the PI3KC3 complex, Beclin 1 is essential for multiple PI3KC3-dependent processes including autophagy, endolysosomal trafficking and phagocytosis. To assess the efficacy of the newly designed peptides on the endolysosomal trafficking process, the ligand-induced endolysosomal degradation of cell surface receptors HER2 and EGFR is characterized by western blotting using SKBR3 breast cancer cell line that over-expresses both EGFR and HER2. […] In contrast, i7-01s-31 treatment at 2 μM results in significant reduction of HER2 level, with about 50% decrease at 15 hours post EGF stimulation, and about 70% decrease at 24 hours (as shown in FIGS. 9c & 9d). i7-01s-31 treatment also strongly promotes EGFR degradation, with approximately 60% reduction at 15 hours post EGF stimulation (as shown in FIGS. 9c & 9e).
Whole cell lysates are extracted using Laemmli sample buffer (62.5 mM Tris-HCl, pH 6.8, 2% SDS, 25% glycerol, 5% β-mercaptoethanol) supplemented with EDTA-free protease inhibitor cocktail (Roche). Protein concentration is determined using a standard Bradford assay before immunoblotting. Protein samples are separated by SDS-PAGE, transferred to a PVDF membrane (Millipore, USA), and incubated with the primary antibodies and HRP-conjugated secondary antibodies. […]

Another assay has as its system SKBR3 cells. The assay can be described thus: Flow cytometry with Annexin V FITC-PI staining. In kind it is cell-based. How it is done: FIG. 12 is a schematic diagram of the result showing the peptides based on strategy (i7-01s) scaffold induce cell death with necrotic features. Flow cytometry analysis with Annexin V FITC-PI staining is performed in SKBR3 cells after treatment of the indicated peptides for 24 hours.
The degree of cellular apoptosis and necrosis is assessed by flow cytometry following the standard protocol provided by the manufacturer. Briefly, SKBR3 cells after the indicated peptide treatment are harvested by trypsin, labelled with Annexin V and PI (Invitrogen), subjected to flow cytometer system (BD Accuri C6), and analyzed by BD Accuri C6 software. The cell populations can be distinguished by the staining of Annexin V/PI. Typically, cellular population in the lower left quadrant is live cells (Annexin V^−, PI^−), the lower right quadrant represents early apoptotic cells (Annexin V^+, PI^−), the upper right quadrant represents late apoptotic cells (Annexin V^+, PI^+), the upper left quadrant represents necrotic cells (Annexin V^−, PI^+).
On the technique in general: In flow cytometry, cells or beads pass a laser one at a time.

T1 sequence (Q14457 176-268): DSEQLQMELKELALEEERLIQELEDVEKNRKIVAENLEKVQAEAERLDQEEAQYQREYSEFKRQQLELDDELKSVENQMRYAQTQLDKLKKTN

In general, Kd refers to a measure of binding affinity in units of concentration. Turning to “Ace-RFIQR8LEVVIKS5RSV-Nme (Ac-RFIQ[R8]LEVVIK[S5]RSV; staple 5-12; not fully specified (C-terminus); printed as Ace-RFIQR8LEVVIKS5RSV-Nme) [i7-01s-34]”, in assay [1], the equilibrium dissociation constant (Kd) entry is on record as “No binding”.

For the molecule `CC[C@H](C)[C@H](NC(=O)[C@H](CC(C)C)NC(=O)[C@H](C)NC(=O)[C@H](CCCNC(=N)N)NC(=O)[C@H](CCCNC(=N)N)NC(=O)[C@H](CCCNC(=N)N)NC(=O)[C@H](CCC(N)=O)NC(=O)[C@H](CCCNC(=N)N)NC(=O)[C@H](CCCNC(=N)N)NC(=O)[C@H](CCCCN)NC(=O)[C@H](CCCCN)NC(=O)[C@H](CCCNC(=N)N)NC(=O)CNC(=O)[C@H](Cc1ccc(O)cc1)NC(C)=O)C(=O)N[C@@H](CCC(N)=O)C(=O)N[C@]1(C)CCCCCCC=CCCC[C@@](C)(C(=O)N[C@@H](CCCNC(=N)N)C(=O)N[C@@H](CCCCN)C(=O)N[C@@H](CCCNC(=N)N)C(N)=O)NC(=O)[C@H](CCCCN)NC(=O)[C@H](CCC(=O)O)NC(=O)[C@H](C(C)C)NC(=O)[C@H](CC(=O)O)NC(=O)[C@H](CCC(=O)O)NC(=O)[C@H](CCC(N)=O)NC1=O` [i7-01s-54, Ace-ALIQR8QEDVEKS5RKR-Nme] (Ac-YGRKKRRQRRRALIQ[R8]QEDVEK[S5]RKR-NH2; staple 16-23), in assay [1] (read-out: Kd), the Kd is 311 ± 54.6 µM.

On to “Ace-RLLQR8LKTVLKS5RSV-Nme (Ac-RLLQ[R8]LKTVLK[S5]RSV; staple 5-12; not fully specified (C-terminus); printed as Ace-RLLQR8LKTVLKS5RSV-Nme) [i7-01s-30]”, for which the equilibrium dissociation constant (Kd) entry in assay [1] is given as “No binding”.

On to `CC[C@H](C)[C@H](NC(=O)[C@H](CC(C)C)NC(=O)[C@H](CCCNC(=N)N)NC(=O)[C@H](CCCNC(=N)N)NC(=O)[C@H](CCCNC(=N)N)NC(=O)[C@H](CCCNC(=N)N)NC(=O)[C@H](CCC(N)=O)NC(=O)[C@H](CCCNC(=N)N)NC(=O)[C@H](CCCNC(=N)N)NC(=O)[C@H](CCCCN)NC(=O)[C@H](CCCCN)NC(=O)[C@H](CCCNC(=N)N)NC(=O)CNC(=O)[C@H](Cc1ccc(O)cc1)NC(C)=O)C(=O)N[C@@H](CO)C(=O)N[C@@H](CCC(=O)O)C(=O)N[C@@H](CC(C)C)C(=O)N[C@]1(C)CCCCCCC=CCCC[C@@](C)(C(=O)N[C@@H](C)C(N)=O)NC(=O)[C@H](CCCNC(=N)N)NC(=O)[C@H](CCC(N)=O)NC(=O)[C@H](CCCCN)NC(=O)[C@H](CCC(=O)O)NC(=O)[C@H](CCCNC(=N)N)NC(=O)[C@H](CC(=O)O)NC1=O` [Tat-SP4, Ac-[Tat]-RLISEL(R8)DREKQR(S5)A-NH2, reference compound] (Ac-YGRKKRRQRRRRLISEL[R8]DREKQR[S5]A-NH2; staple 18-25), for which the EGFR degradation profile entry with EGFR is “does not show any noticeable impact”. Also, the HER2 degradation profile entry with HER2 is “does not show any noticeable impact”. Besides, in the assay on SKBR3 cells (SKBR3, 10 μM, 24 hours), the PI positive cells result is reported as “approximately 8%”. In addition, in the assay on SKBR3 cells (SKBR3, 24 hours), the “change of Annexin V positive cells (apoptosis)” value was “no increase” and the “change of PI positive staining cells (dead cells)” value is given as “significant increase”.

In the case of “Ace-RLIQR8REDVEKS5RKR-Nme (Ac-RLIQ[R8]REDVEK[S5]RKR; staple 5-12; not fully specified (C-terminus); printed as Ace-RLIQR8REDVEKS5RKR-Nme) [i7-01s-36]”, the Kd entry in assay [1] is “No binding”.

For `COc1cccc2c1C(=O)c1c(O)c3c(c(O)c1C2=O)C[C@@](O)(C(=O)CO)C[C@@H]3O[C@H]1C[C@H](N)[C@H](O)[C@H](C)O1` [doxorubicin, reference compound], the “change of Annexin V positive cells (apoptosis)” value in the assay on SKBR3 cells (SKBR3, 24 hours) is “significant increase”.
